Laboratory results reported in patent publication US20120136583A1, “METHOD FOR PREDICTING EFFICACY OF DRUGS IN A PATIENT” (WORLDWIDE INNOVATIVE NETWORK, priority 2009, published 2012).

Tests used:
[1] = test system: non-small cell lung carcinoma (NSCLC), cT4, N0, M1; experiment: Clinical course under treatment, patient of Example 1; assay type: in vivo, human; conditions: Example 1 patient
[2] = test system: primary bronchial adenocarcinoma with bilateral pulmonary metastases and asymptomatic cerebral metastases; experiment: Clinical course under treatment, patient of Example 3; assay type: in vivo, human; conditions: Example 3 patient
Excerpt: A patient was diagnosized in May 2007 for a primary bronchial adenocarcinoma with bilateral pulmonary metastases and asymptomatic cerebral metastases. A surgical treatment has been carried out in November 2008 and two therapeutic lines have been used, namely thirteen cycles of cisplatin-gemcitabin for the first line and Alimta for the second one.
However, based on this score table, avastin associated with a score of 384 has been selected.

[3] = test system: bronchial adenocarcinoma T4 with bones and pleural metastases; conditions: Example 2 patient

Compound | Clinical response / disease status under treatment [2] | Clinical response / disease status under treatment [3] | further results
CCOc1cc2ncc(C#N)c(Nc3ccc(OCc4ccccn4)c(Cl)c3)c2cc1NC(=O)/C=C/CN(C)C [HKI 272] | – | – | Clinical response / disease status under treatment [1]: efficient; Time on treatment until disease progression [1]: 37 months
Nc1nc2[nH]cc(CCc3ccc(C(=O)N[C@@H](CCC(=O)O)C(=O)O)cc3)c2c(=O)[nH]1 [PEMETREXED] | disease progression | – | –
C#Cc1cccc(Nc2ncnc3cc(OCCOC)c(OCCOC)cc23)c1 [Tarceva] | – | inefficient and led to a rapid progression | –
CCC1=C[C@@H]2CN(C1)Cc1c([nH]c3ccccc13)[C@@](C(=O)OC)(c1cc3c(cc1OC)N(C)[C@H]1[C@@](O)(C(=O)OC)[C@H](OC(C)=O)[C@]4(CC)C=CCN5CC[C@]31[C@@H]54)C2 [VINORELBINE] | – | Three months later, the disease was stable, then progressed | –
BEVACIZUMAB: drug whose major target gene is VEGFA | major response | – | –
